Inhibition data for 50 compounds are collected here from ChEMBL document CHEMBL3301451, “MMV Malaria Box gametocyte functional viability assay screening”.

Holding throughout (assay type): functional
Common to all, as to design: concentration or dose not given beside the values

For test [1], the system named is Plasmodium falciparum. Description: MMV: P. falciparum NF54 functionally mature Stage V gametocytes were incubated for 24 hr in the presence of the test compounds. Gamete formation was then triggered by addition of 2uM xantheurenic acid and temperature decrease to ~20C. Male gamete exflagellation was recorded and analysed by automated microscopy after 20 min. All compounds were tested in 4 independent experiments and data presented here is the mean.

A further test relates to Plasmodium berghei. Description: MMV: P. berghei-infected blood was withdrawn from mice by cardiac pucture before being immediately added to ookinete culture medium containing test compounds. 26 hr later, GFP-positive ookinetes were identified and counted by automated microscopy. All compounds were tested in 4 independent experiments and data presented here is the mean.

Test [2] deals with Plasmodium falciparum. Description: MMV: P. falciparum NF54 functionally mature Stage V gametocytes were incubated for 24 hr in the presence of the test compounds. Gamete formation was then triggered by addition of 2uM xantheurenic acid and temperature decrease to ~20C. Female gamete formation was recorded 24 hr later by automated microscopy detection of surface labelling of female gametes with a Cy3-conjugated antibody reactive to Pfs25. All compounds were tested in 4 independent experiments and data presented here is the mean. The conditions noted are these: NF54, 24 h.

A word on the inhibition: it is the change of the read-out against control, counted positive when it falls. For the compound `COc1ccc(Nc2nc(N/N=C/c3ccc(O)cc3)nc(Nc3ccc([N+](=O)[O-])cc3)n2)cc1`, the inhibition in the test with Plasmodium falciparum [1] was -4.02%; with Plasmodium berghei it was 30.88%; with Plasmodium falciparum [2], -19.8%.

For the compound `Nc1nc(Nc2cccc(F)c2)nc2ccccc12`, the values for the inhibition in the test on Plasmodium falciparum [1], with Plasmodium berghei and in the test with Plasmodium falciparum [2] were -16.2%, 16.83% and -41.8%, respectively.

With `COc1ccc(/C=C2/SC(=Nc3ccccc3)NC2=O)cc1`, the inhibition with Plasmodium falciparum [1] was 3.39%; in the test on Plasmodium berghei, 15.63%; in the test on Plasmodium falciparum [2], -46.5%.

On to `CCn1nc(-c2ccc(C(=O)OC)cc2)nc2c(=O)n(C)c(=O)nc1-2`, for which the inhibition with Plasmodium falciparum [1] was 25.3%; in the test on Plasmodium berghei it was 17.71%; in the test on Plasmodium falciparum [2] it was -15.8%.

On to `CCOc1ccccc1CN1CCc2nc3cc(C(C)(C)C)nn3c(O)c2C1`, for which the inhibition is 3.23% with Plasmodium falciparum [1], 19.57% with Plasmodium berghei and 5.87% in the test with Plasmodium falciparum [2].

Consider `O=C(NC1CCN(Cc2ccccc2)CC1)c1cc2nc(-c3ccc(Cl)s3)cc(C(F)(F)F)n2n1`, for which the inhibition in the test with Plasmodium falciparum [1] is -4.49%; in the test with Plasmodium berghei, 28.86%; in the test with Plasmodium falciparum [2], -40.5%.

Consider `O=C(NNc1cc(N2CCCC2)nc(N2CCCC2)n1)c1ccccc1`, for which the values for the inhibition with Plasmodium falciparum [1], in the test on Plasmodium berghei and in the test with Plasmodium falciparum [2] were 30.4%, 26.51% and -28.5%, respectively.

Turning to `COc1ccc(C2c3ccc4ccccc4c3Oc3ncn(CCCn4ccnc4)c(=N)c32)cc1OC` (centres undefined), the inhibition is 17.5% with Plasmodium falciparum [1], 36.85% in the test on Plasmodium berghei and -9.13% in the test with Plasmodium falciparum [2].

Turning to `Cc1ccc(-c2cc3c(nn2)-c2ccccc2C3=O)cc1`, the inhibition with Plasmodium falciparum [1] is 30.4%; in the test on Plasmodium berghei, 22.47%; in the test with Plasmodium falciparum [2], -20.4%.

Turning to `Cc1ccc(Nc2nc(-c3ccccn3)cs2)cc1`, the values for the inhibition in the test with Plasmodium falciparum [1], in the test with Plasmodium berghei and in the test on Plasmodium falciparum [2] were 16.3%, 12.18% and 0.787%, respectively.

For `O=C(NCc1ccco1)C1CCN(S(=O)(=O)c2ccc(Cl)cc2)CC1`, the inhibition in the test on Plasmodium falciparum [1] was 46.2%; in the test on Plasmodium berghei, 33.84%; in the test on Plasmodium falciparum [2], -26.9%.

`COc1cc(C(=O)Nc2ccc(-c3nc4ccccc4[nH]3)cc2)cc(OC)c1OC`: the values for the inhibition in the test on Plasmodium falciparum [1], in the test on Plasmodium berghei and in the test with Plasmodium falciparum [2] were -40.5%, 21.1% and -25.2%, respectively.

`FC(F)(F)c1ccc(Nc2nnnc3ccccc23)cc1`: the results for the inhibition in the test with Plasmodium falciparum [1], in the test on Plasmodium berghei and with Plasmodium falciparum [2] were 33.7%, 36.6% and -30.5%, respectively.

In the case of `O=c1nc(C=Cc2ccc(Br)cc2)oc2ccccc12`, the inhibition was 35.1% with Plasmodium falciparum [1], 19.61% with Plasmodium berghei and 4.96% in the test with Plasmodium falciparum [2].

As to `CC(Oc1ccc(NC(=O)c2cccs2)cc1)C(=O)c1ccc(Cl)cc1` (centres undefined), the inhibition is 25.6% in the test with Plasmodium falciparum [1], 73.22% in the test with Plasmodium berghei and -14% in the test on Plasmodium falciparum [2].

On to `Cc1sc2ncnc(Sc3nc4ccccc4[nH]3)c2c1C`, for which the figures for the inhibition with Plasmodium falciparum [1], in the test with Plasmodium berghei and with Plasmodium falciparum [2] were 30.8%, 65.53% and -10.9%, respectively.

Take `CN(C)c1ccc(C=Cc2nc(=O)c3ccccc3o2)cc1`: the inhibition in the test on Plasmodium falciparum [1] was 17.6%; in the test with Plasmodium berghei, 54.94%; with Plasmodium falciparum [2] it was -16.7%.

With `CCCCNc1nc(NC(C)(C)C)nc(NC(C)(C)C)n1`, the results for the inhibition in the test on Plasmodium falciparum [1], in the test with Plasmodium berghei and with Plasmodium falciparum [2] were -9.24%, 83.46% and -29.6%, respectively.

As for `O=C(O)C(=O)O.Oc1ccccc1CN1CCN(C(c2ccccc2)c2ccccc2)CC1`, the inhibition was 23.5% with Plasmodium falciparum [1], 19.05% in the test with Plasmodium berghei and -11.9% in the test with Plasmodium falciparum [2].

Take `OC(CNC1CCCCC1)Cn1c2ccccc2c2ccccc21` (centres undefined): the inhibition stood at 12.1% with Plasmodium falciparum [1], 28.1% in the test on Plasmodium berghei and 4.91% in the test on Plasmodium falciparum [2].

On to `COc1cccc(C=Cc2nc(=O)c3ccccc3o2)c1OC`, for which the inhibition in the test with Plasmodium falciparum [1] is -2.89%; in the test with Plasmodium berghei, 98.18%; in the test on Plasmodium falciparum [2], -15.1%.

As to `COc1ccc(CCn2c(=N)c(C(=O)NCc3cccnc3)cc3c(=O)n4cccc(C)c4nc32)cc1`, the values for the inhibition in the test with Plasmodium falciparum [1], in the test with Plasmodium berghei and in the test with Plasmodium falciparum [2] were -7.17%, 23.24% and -20.7%, respectively.

For the compound `COc1ccc(-c2cn3c(C(=O)Nc4ccccc4Cl)c(-c4ccccc4)c4c3n2CCCC4)cc1`, the inhibition with Plasmodium falciparum [1] was -67.8%; with Plasmodium berghei it was 15.55%; with Plasmodium falciparum [2], -34.6%.

As for `Cc1ccc(CSCc2ccc(C(=O)NC3CC3)o2)cc1`, the inhibition with Plasmodium falciparum [1] is 34.4%; in the test on Plasmodium berghei, 11.64%; in the test with Plasmodium falciparum [2] it was -29.1%.

For `COc1ccc(C=C2SC(Nc3ccc(F)cc3)=NC2=O)c(OC)c1`, the inhibition is 42.9% in the test on Plasmodium falciparum [1], 49.11% in the test on Plasmodium berghei and -24.5% in the test on Plasmodium falciparum [2].

As for `Cc1ccc(-c2cc3nc4c(c(O)n3n2)CCCC4)cc1`, the results for the inhibition with Plasmodium falciparum [1], in the test on Plasmodium berghei and with Plasmodium falciparum [2] were 22.3%, 12.06% and -14.6%, respectively.

With `COc1cccc(C(=O)Nc2ccc(-c3nc4ccccc4[nH]3)cc2)c1`, the inhibition was found to be 24% in the test on Plasmodium falciparum [1], 18.46% with Plasmodium berghei and 1.53% with Plasmodium falciparum [2].

With `CCN(Cc1ccccc1)C1CCN(Cc2cc(Br)ccc2O)CC1.O=C(O)C(=O)O`, the inhibition in the test with Plasmodium falciparum [1] was 7.05%; in the test on Plasmodium berghei it was 11.31%; in the test on Plasmodium falciparum [2] it was -4.68%.

With `OCCNc1nc(Nc2ccc(Cl)c(Cl)c2)nc2ccccc12`, the inhibition in the test on Plasmodium falciparum [1] was -35.4%; in the test on Plasmodium berghei, 17.26%; in the test on Plasmodium falciparum [2] it was -25.8%.

Consider `Nc1ccc(-c2nc3cc(Oc4ccc(Oc5ccc6[nH]c(-c7ccc(N)cc7)nc6c5)cc4)ccc3[nH]2)cc1`, for which the inhibition was 3.94% with Plasmodium falciparum [1], 13.14% with Plasmodium berghei and -54.1% in the test on Plasmodium falciparum [2].

On to `CC1CCN(Cc2c(O)ccc3cc(-c4nc5ccccc5s4)c(=O)oc23)CC1`, for which the figures for the inhibition in the test with Plasmodium falciparum [1], in the test with Plasmodium berghei and in the test on Plasmodium falciparum [2] were -4.49%, 100% and -24.7%, respectively.

Take `c1ccc2cc3c(Nc4ccc(N5CCOCC5)cc4)ccnc3cc2c1`: the inhibition in the test with Plasmodium falciparum [1] was 13.2%; with Plasmodium berghei, 12.53%; with Plasmodium falciparum [2], -0.0777%.

For `Cc1c(C)n(Cc2ccc(F)cc2)c2ccc(C(=O)NCc3ccco3)cc12`, the results for the inhibition with Plasmodium falciparum [1], in the test with Plasmodium berghei and in the test with Plasmodium falciparum [2] were 49.7%, 17.74% and -40.2%, respectively.

Turning to `CCN(CC)c1ccc(NC(=O)c2cccs2)cc1`, the inhibition with Plasmodium falciparum [1] is 44.7%; in the test with Plasmodium berghei, 23.39%; in the test with Plasmodium falciparum [2] it was -5.42%.

`CC(C)(C)C(=O)Nc1ccc(C(=O)Nc2cccc(-c3nc4ccccc4[nH]3)c2)cc1`: the inhibition in the test on Plasmodium falciparum [1] was 11%; in the test with Plasmodium berghei, 14.15%; in the test on Plasmodium falciparum [2], -2.43%.

In the case of `O=C(Nc1ccc(N2CCN(Cc3ccccc3)CC2)cc1)c1cccs1.O=C(O)C(F)(F)F`, the inhibition in the test with Plasmodium falciparum [1] was determined as 39.5%; with Plasmodium berghei, 16.79%; in the test with Plasmodium falciparum [2], 16.2%.

In the case of `O=C(Nc1ccc(Cl)cc1C(=O)Nc1ccncc1)c1ccc(Cl)cc1Cl`, the inhibition in the test with Plasmodium falciparum [1] was 7.46%; with Plasmodium berghei, 36.2%; in the test with Plasmodium falciparum [2], 9.34%.

For `O=C1CC(O)(C(F)(F)C(F)(F)F)Oc2ccccc21` (centres undefined), the inhibition was -0.9117% in the test with Plasmodium berghei and -15.2% in the test with Plasmodium falciparum [2].

`Cc1ccc(C2CC(C(F)(F)F)n3nc(C(=O)N4CCN(C(c5ccccc5)c5ccccc5)CC4)cc3N2)cc1` (centres undefined): the figures for the inhibition with Plasmodium falciparum [1], with Plasmodium berghei and in the test on Plasmodium falciparum [2] were 8.58%, 12.55% and -8.56%, respectively.

In the case of `CC(C)(C)c1ccc(C(=O)Nc2nc3ccccc3s2)cc1`, the results for the inhibition in the test with Plasmodium falciparum [1], in the test with Plasmodium berghei and with Plasmodium falciparum [2] were 26.1%, 18.69% and -4.04%, respectively.

`O=C(NCc1ccco1)C1CCN(S(=O)(=O)c2ccc(Br)cc2)CC1`: the inhibition stood at 29.2% in the test on Plasmodium falciparum [1], 31.69% in the test on Plasmodium berghei and 5.71% in the test on Plasmodium falciparum [2].

Turning to `Oc1c(CN2CCN(c3ccccc3F)CC2)cc(Br)c2cccnc12`, the inhibition in the test on Plasmodium falciparum [1] came out at 5.41%; in the test on Plasmodium berghei it was 34.85%; in the test with Plasmodium falciparum [2], 31.5%.

As for `CCCc1c(C)nc2ccc(Br)cc2c1O`, the inhibition in the test with Plasmodium falciparum [1] was -14.5%; in the test on Plasmodium berghei, 47.59%; in the test with Plasmodium falciparum [2], -18.5%.

Turning to `CCCc1c(C)nc2ccccc2c1O`, the inhibition in the test with Plasmodium falciparum [1] is 66.4%; in the test with Plasmodium berghei, 34.59%; in the test with Plasmodium falciparum [2] it was 1.84%.

Take `CCOc1ccc(Nc2c3ccccc3nc3ccccc23)cc1.Cl`: the inhibition in the test with Plasmodium falciparum [1] was 21.7%; in the test on Plasmodium berghei, 63.73%; in the test with Plasmodium falciparum [2] it was -9.14%.

Take `CCCCc1c(C)nc2c(OC)cccc2c1O`: the inhibition in the test with Plasmodium falciparum [1] amounted to 54.7%; in the test on Plasmodium berghei, 20.97%; in the test on Plasmodium falciparum [2], 0.0743%.

In the case of `CCCCCCc1cc2cc(-c3nc4ccccc4[nH]3)c(=Nc3ccccc3C)oc2cc1O`, the figures for the inhibition with Plasmodium falciparum [1], in the test with Plasmodium berghei and in the test with Plasmodium falciparum [2] were 9.8%, 23.15% and 5.88%, respectively.

`COc1ccc(C2Sc3ccccc3N=C3C2=C(O)c2ccccc23)cc1` (centres undefined): the inhibition was 32.2% in the test on Plasmodium falciparum [1], 68.07% in the test on Plasmodium berghei and 0.279% with Plasmodium falciparum [2].

For `COc1ccccc1N1C(=N)SC(=Cc2ccc(OCc3ccccc3F)cc2)C1=O`, the inhibition stood at 12.8% in the test with Plasmodium falciparum [1], 33.34% in the test with Plasmodium berghei and 10.4% in the test with Plasmodium falciparum [2].

Consider `C=CCc1c(C)nc2ccccc2c1O`, for which the inhibition is 52.3% in the test with Plasmodium falciparum [1], 19.81% in the test with Plasmodium berghei and -51.4% in the test on Plasmodium falciparum [2].
